Test results: patent US20230092895A1, “TANDEM CD19 CAR-BASED COMPOSITIONS AND METHODS FOR IMMUNOTHERAPY” (Obsidian Therapeutics, Inc., priority 2019, published 2023)
Like-named read-outs stand apart in the source and are kept apart here.

Assays:
HCT-116 cells = conditions: 24 hours; for IL15Ra mean fluorescent intensity (MFI): HCT-116 cells stably expressing OT-001111
Experimental: HCT-116 cells stably expressing the OT-001111 (OT-IL15-009) cassette were incubated with 0 to 250 μM TMP ligand (or DMSO) for 24 hours. Membrane bound IL15-IL15Ra levels were assessed using flow cytometry detection of IL15Ra.

[1] = human, cited from earlier work
[2] = tested on: GFP positive (IL12 negative) T cells; assay: In vivo T cell phenotype: GFP positive cells co-transferred with CD19 CAR-IL12 cells, FACS markers, plasma IL12; design: species or system NSG mice
Experimental: IL12-transduced T cells have a Th1-skewed phenotype in vitro, i.e. produce IFN gamma). To assess phenotypic effects of IL12 in vivo, GFP positive (IL12 negative) cells were generated and co-transferred with CD19 CAR-IL12 transduced cells or CD19 alone or IL12 alone cells. Nalm 6 tumor bearing NSG mice were injected with 8 million GFP positive cells, in addition to CD19 CAR-IL12 cells or their corresponding monocistronic constructs. The groups utilized in this study included, 1e^6 empty vector expressing T cells plus 8e^6 GFP positive cells, 1e^6 OT-001407 plus 8e^6 GFP positive cells, 0.1 e^6 OT-001356 plus 8e^6 GFP positive cells, 1e^6 OT-001356 plus 8e^6 GFP positive cells, 0.1e^6 OT-001357 plus 8e^6 GFP positive cells, 1e^6 OT-001357 plus 8e^6 GFP positive cells, and 1e^6 OT-001442 plus 8e^6 GFP positive cells.
Animals were bled on day 3, day 5, day 7 and euthanized at day 12. Blood, spleen, and bone marrow were collected for analysis of T cell number and CD8 frequency. Phenotypic T cell markers such as Granzyme, Tbet, pSTAT4, CD25, and ICOS were analyzed in the GFP positive cells using FACS. […] By day 12, post transfer, the levels of Granzyme B, Tbet, pSTAT4, CD25 and ICOS levels increased in the blood of the mice injected with the CD19 CAR-IL12 tandem constructs. ANOVA test for significance was p<0.0001 for all markers. […]

Row | Compound | TMP concentration resulting in IL15Ra MFI levels above DMSO controls (HCT-116 cells; HCT-116 stably expressing OT-001111) [µM] | IL15Ra mean fluorescent intensity (MFI) (HCT-116 cells; TMP 0.00064 μM) | IL15Ra mean fluorescent intensity (MFI) (HCT-116 cells; TMP 0.0032 μM) | IL15Ra mean fluorescent intensity (MFI) (HCT-116 cells; TMP 0.016 μM) | IL15Ra mean fluorescent intensity (MFI) (HCT-116 cells; TMP 0.08 μM) | IL15Ra mean fluorescent intensity (MFI) (HCT-116 cells; TMP 0.4 μM) | IL15Ra mean fluorescent intensity (MFI) (HCT-116 cells; TMP 2 μM) | IL15Ra mean fluorescent intensity (MFI) (HCT-116 cells; TMP 10 μM) | IL15Ra mean fluorescent intensity (MFI) (HCT-116 cells; TMP 50 μM) | IL15Ra mean fluorescent intensity (MFI) (HCT-116 cells; TMP 250 μM) | TMP maximum peak levels ([1]; 150 mg/m2 IV every 8 hours) [µM] | TMP steady state levels ([1]; 80-160 mg BID PO) [µM] | EC 50 of IL12 in plasma ([2]; mouse, in vivo) [ng/mL] | level of IL12 sufficient to induce phenotypic changes ([2]; plasma, markers and IFN gamma) [pg/mL]
1 | COc1cc(Cc2cnc(N)nc2N)cc(OC)c1OC [TMP, Trimethoprim] | 0.0032 | 304 | 469 | 666 | 769 | 1001 | 1104 | 1204 | 1344 | 1576 | 17 to 34 | 1 to 6 | – | –
2 | IL12: heterodimeric protein of two subunits (p35, p40); cytokine | – | – | – | – | – | – | – | – | – | – | – | – | ~0.1 | 200
